Measured values: PubChem BioAssay (NCI)
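Cultured in 96-well plates, cells were exposed to test compound for 48 hours across five concentrations. Here, GI50 denotes the concentration required for 50% inhibition of growth. At the TGI there is no net growth.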

Tests used:
Assay in all cases: NCI anticancer screen, dose series, 48 h
[1] = system: 786-0 renal
[2] = system: A498 renal
[3] = system: A549 NSCLC
[4] = system: ACHN renal
[5] = system: BT-549 breast
[6] = system: CAKI-1 renal
[7] = system: CCRF-CEM leukemia
[8] = system: COLO 205 colon
[9] = system: DU-145 prostate
[10] = system: EKVX NSCLC
[11] = system: HCC-2998 colon
[12] = system: HCT-116 colon
[13] = system: HCT-15 colon
[14] = system: HL-60(TB) leukemia
[15] = system: HOP-62 NSCLC
[16] = system: HOP-92 NSCLC
[17] = system: HS 578T breast
[18] = system: HT29 colon
[19] = system: IGROV1 ovarian
[20] = system: K-562 leukemia
[21] = system: KM12 colon
[22] = system: LOX IMVI melanoma
[23] = system: M14 melanoma
[24] = system: MALME-3M melanoma
[25] = system: MCF7 breast
[26] = system: MDA-MB-231 breast
[27] = system: MDA-MB-435
[28] = system: MOLT-4 leukemia
[29] = system: NCI-H226 lung
[30] = system: NCI-H23 lung
[31] = system: NCI-H460 lung
[32] = system: NCI-H522 lung
[33] = system: NCI/ADR-RES ovarian
[34] = system: OVCAR-3 ovarian
[35] = system: OVCAR-4 ovarian
[36] = system: OVCAR-5 ovarian
[37] = system: OVCAR-8 ovarian
[38] = system: PC-3 prostate
[39] = system: RPMI-8226 leukemia
[40] = system: RXF 393 renal
[41] = system: SF-268 CNS
[42] = system: SF-295 CNS
[43] = system: SF-539 CNS
[44] = system: SK-MEL-2 melanoma
[45] = system: SK-MEL-28 melanoma
[46] = system: SK-MEL-5 melanoma
[47] = system: SK-OV-3 ovarian
[48] = system: SN12C renal
[49] = system: SNB-19 CNS
[50] = system: SNB-75 CNS
[51] = system: SR leukemia
[52] = system: SW-620 colon
[53] = system: T-47D breast
[54] = system: TK-10 renal
[55] = system: U251 CNS
[56] = system: UACC-257 melanoma
[57] = system: UACC-62 melanoma
[58] = system: UO-31 renal

O=C(N/N=C\c1cc(Cl)ccc1O)c1ccncc1 was tested, and the GI50 [1] was 2.6 µM, the TGI [1] was 32.2 µM and the GI50 [2] was 15.2 µM. For the same compound, the TGI [2] was > 100 µM, the GI50 [3] was 12.9 µM and the TGI [3] was > 100 µM. The GI50 [4] was 1.91 µM, the TGI [4] was > 100 µM and the GI50 [5] was 9.18 µM. The TGI [5] was > 100 µM, the GI50 [6] was 1.65 µM and the TGI [6] was > 100 µM. The GI50 [7] was 2.15 µM, the TGI [7] was > 100 µM and the GI50 [8] was 4.21 µM. The TGI [8] was > 100 µM, the GI50 [9] was 4.63 µM and the TGI [9] was > 100 µM. For the same compound, the GI50 [10] was 27.3 µM, the TGI [10] was > 100 µM and the GI50 [11] was 3.03 µM. For the same compound, the TGI [11] was > 100 µM, the GI50 [12] was 1.63 µM and the TGI [12] was > 100 µM. For the same compound, the GI50 [13] was 0.576 µM, the TGI [13] was > 100 µM and the GI50 [14] was 3.02 µM. The TGI [14] was > 100 µM, the GI50 [15] was 2.97 µM and the TGI [15] was > 100 µM. The GI50 [16] was 3.47 µM, the TGI [16] was 61.3 µM and the GI50 [17] was 26 µM. The TGI [17] was > 100 µM, the GI50 [18] was 5.9 µM and the TGI [18] was > 100 µM. For the same compound, the GI50 [19] was 6.16 µM, the TGI [19] was > 100 µM and the GI50 [20] was 4.55 µM. The TGI [20] was > 100 µM, the GI50 [21] was 4.61 µM and the TGI [21] was > 100 µM. For the same compound, the GI50 [22] was 1.56 µM, the TGI [22] was > 100 µM and the GI50 [23] was 3.05 µM. For the same compound, the TGI [23] was 23.4 µM, the GI50 [24] was 14.6 µM and the TGI [24] was > 100 µM. For the same compound, the GI50 [25] was 2.05 µM, the TGI [25] was > 100 µM and the GI50 [26] was 3.67 µM. For the same compound, the TGI [26] was > 100 µM, the GI50 [27] was 11.7 µM and the TGI [27] was > 100 µM. The GI50 [28] was 2.91 µM, the TGI [28] was > 100 µM and the GI50 [29] was 2.61 µM. The TGI [29] was 59 µM, the GI50 [30] was 4.01 µM and the TGI [30] was > 100 µM. The GI50 [31] was 1.46 µM, the TGI [31] was > 100 µM and the GI50 [32] was 2.69 µM. The TGI [32] was 22.4 µM, the GI50 [33] was 2.01 µM and the TGI [33] was > 100 µM. The GI50 [34] was 0.617 µM, the TGI [34] was > 100 µM and the GI50 [35] was 0.967 µM. The TGI [35] was 73.5 µM, the GI50 [36] was 25.5 µM and the TGI [36] was > 100 µM. For the same compound, the GI50 [37] was 3.39 µM, the TGI [37] was > 100 µM and the GI50 [38] was 3.69 µM. The TGI [38] was > 100 µM, the GI50 [39] was 8.85 µM and the TGI [39] was > 100 µM. For the same compound, the GI50 [40] was 2.43 µM, the TGI [40] was > 100 µM and the GI50 [41] was 2.69 µM. For the same compound, the TGI [41] was > 100 µM, the GI50 [42] was 5.29 µM and the TGI [42] was > 100 µM. For the same compound, the GI50 [43] was 3.97 µM, the TGI [43] was > 100 µM and the GI50 [44] was 19.5 µM. The TGI [44] was > 100 µM, the GI50 [45] was 3.05 µM and the TGI [45] was > 100 µM. For the same compound, the GI50 [46] was 1.96 µM, the TGI [46] was 19 µM and the GI50 [47] was 5.39 µM. The TGI [47] was > 100 µM, the GI50 [48] was 4 µM and the TGI [48] was > 100 µM. For the same compound, the GI50 [49] was 5.95 µM, the TGI [49] was > 100 µM and the GI50 [50] was 9.29 µM. The TGI [50] was > 100 µM, the GI50 [51] was 2.85 µM and the TGI [51] was > 100 µM. The GI50 [52] was 3.42 µM, the TGI [52] was > 100 µM and the GI50 [53] was 2.1 µM. For the same compound, the TGI [53] was > 100 µM, the GI50 [54] was 17.6 µM and the TGI [54] was > 100 µM. For the same compound, the GI50 [55] was 1.86 µM, the TGI [55] was > 100 µM and the GI50 [56] was 4.16 µM. For the same compound, the TGI [56] was > 100 µM, the GI50 [57] was 1.48 µM and the TGI [57] was 13.7 µM. The GI50 [58] was 2.18 µM and the TGI [58] was > 100 µM.
